The text below walks through data of article PMC10714930, “In silico virtual screening for the identification of novel inhibitors against dihydrodipicolinate reductase (DapB) of Mycobacterium tuberculosis, a key enzyme of diaminopimelate pathway” (Microbiology Spectrum, 2023).

The target of assay [1] is M. tb DapB (Mycobacterium tuberculosis, UniProt P9WP23). Put plainly: Dihydrodipicolinate reductase (DapB)-coupled enzymatic assay. Format: biochemical.
Procedure: The enzymatic assay of DapB is a coupled assay which requires the upstream enzyme DapA. The formation of tetrahydrodipicolinate by DapB was measured by monitoring conversion of NADPH to NADP^+ spectrophotometrically at 340 nm. The substrate of DapB, i.e., 2,4-dihydrodipicolinic acid, was prepared enzymatically through condensation of Aspartate Semialdehyde [(S)-ASA] and sodium pyruvate by DapA. The standard assay was performed in 50 mM sodium phosphate buffer (pH 7.5) consisting of 400 µM (S)-ASA, 160 µM NADPH, 500 µM sodium pyruvate, 3 µg DapB, and 5 µg DapA in a total reaction volume of 100 µL. […] The decrease in the absorbance of NADPH corresponding to the consumption of substrate was monitored at 340 nm after incubation for 10 minutes at room temperature. […] The activity of DapB in the presence of compounds was measured similarly; however, the enzyme was pre-incubated with the compounds for 10 minutes at 37°C. The percent activity for the samples in the presence of inhibitors was calculated by using a two-step method. Firstly, the absorbance values at 340 nm for each test sample (with or without the inhibitor) were normalized with the negative control (no substrate control). Subsequently, the percent activity was calculated by using the formula (normalized A340nm of inhibitor sample/normalized A340nm of no inhibitor sample) × 100. […]
Assay [2] concerns M. tb H37Rv. In words: M. tb whole cell growth inhibition by resazurin microtiter assay. Format: cell-based, Mycobacterium tuberculosis. On the technique in general: Alamar Blue is a resazurin reagent that responds to reducing activity.
The subject of assay [3] is M. tb H37Rv. In words: Checkerboard assay of B59 with B20. It is filed as cell-based, Mycobacterium tuberculosis.
The subject of assay [4] is M. tb H37Rv inside THP-1 macrophages. Put plainly: Intracellular inhibition assay in THP-1 macrophages. It is filed as cell-based. The following applies: Mycobacterium tuberculosis, 120 h, CFU enumeration after 5 days of infection.
For assay [5], the target named is DapA and DapB (purified enzymes) (Mycobacterium tuberculosis, UniProt P9WP25). It is filed as biochemical. The following applies: coupled enzyme assay, Michaelis-Menten plot.
Assay [6] deals with mycobacterial DapB. The arrangement: method as in PMID 12962488. The following applies: cited from earlier work.

Values after ≈ are worked out from the molar mass of the structure shown.

By IC50 is commonly meant the concentration that gives 50% inhibition. For orientation: inhibition means how much of the control response was suppressed. As usually defined, the MIC99 is an inhibitory concentration at the 99% level, which refers to growth in some studies and to a panel of isolates in others. The Km is the concentration of substrate that gives half-maximal velocity.

Chain of M. tb DapB (P9WP23 whole entry, looked up): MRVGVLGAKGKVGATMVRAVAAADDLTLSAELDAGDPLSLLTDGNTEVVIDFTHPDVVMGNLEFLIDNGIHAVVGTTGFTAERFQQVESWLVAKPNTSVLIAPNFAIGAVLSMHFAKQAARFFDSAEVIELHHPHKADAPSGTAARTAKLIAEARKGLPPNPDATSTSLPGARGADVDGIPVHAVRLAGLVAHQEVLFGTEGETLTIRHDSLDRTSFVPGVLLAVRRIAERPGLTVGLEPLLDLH
Chain of DapA and DapB (purified enzymes) (P9WP25 whole entry, looked up): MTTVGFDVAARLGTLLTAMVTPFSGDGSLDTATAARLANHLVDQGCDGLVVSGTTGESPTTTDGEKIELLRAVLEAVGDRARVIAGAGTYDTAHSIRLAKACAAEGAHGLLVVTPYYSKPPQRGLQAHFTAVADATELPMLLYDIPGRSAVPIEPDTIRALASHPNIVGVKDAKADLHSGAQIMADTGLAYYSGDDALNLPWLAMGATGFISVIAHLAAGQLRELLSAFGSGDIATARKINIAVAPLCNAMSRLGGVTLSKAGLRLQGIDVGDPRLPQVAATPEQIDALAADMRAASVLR

In assay [1] (IC50 exhibited by compounds in biochemical assay, DapB enzymatic activity, compounds 10-100 µg/mL), `COC(=O)CCCc1nc2ccccc2nc1N=Nc1ccccc1` [Compound B59, 4-(3-Phenylazoquinoxalin-2-yl) butanoic acid methyl ester] gave an IC50 of 32.9 µM. For the same molecule, the inhibition at 100 µg/mL in assay [1] (at 100 µg/mL, read-out: inhibition of DapB enzyme activity) was above 80%. For the same molecule, the “MIC99 exhibited by compounds against M. tb growth” value in assay [2] (M. tb H37Rv, 7 days, resazurin and drop plating) came out at 20 µg/mL (≈ 59.8 µM). For the same molecule, in assay [2] (Mycobacterium tuberculosis, 168 h, M. tb H37Rv, 7 days, resazurin and drop plating, read-out: MIC99 exhibited by compounds against M. tb growth), the MIC99 was 20 µg/mL (≈ 59.8 µM). Further, the “effect on bacterial growth by CFU enumeration” value in assay [2] (at 0.5X MIC99 and 0.25X MIC99) is on record as “inhibition of the bacterial growth”. In addition, in assay [3] (MIC99 in combination / MIC99 alone), the “fractional inhibitory concentration (FIC)” value is recorded as 0.062. Also, in assay [3] (in the presence of 20 µg/mL of compound B20), the “MIC99 of B59 in combination” value is 1.25 µg/mL. In assay [4], this molecule showed an MIC90 of 73 µg/mL (≈ 218 µM).
Consider `CC(=O)C(=O)O` [sodium pyruvate], for which, in assay [5], the Km was 125 µM.
With `NC(=O)C1=CN([C@@H]2O[C@H](COP(=O)(O)OP(=O)(O)OC[C@H]3O[C@@H](n4cnc5c(N)ncnc54)[C@H](OP(=O)(O)O)[C@@H]3O)[C@@H](O)[C@H]2O)C=CC1` [NADPH], the Michaelis-Menten constant (Km) in assay [6] is 11.8 ± 1.5 µM.
For `NC(=O)C1=CN([C@@H]2O[C@H](COP(=O)(O)OP(=O)(O)OC[C@H]3O[C@@H](n4cnc5c(N)ncnc54)[C@H](O)[C@@H]3O)[C@@H](O)[C@H]2O)C=CC1` [NADH], the Km in assay [6] is 3.2 ± 0.4 µM.
Turning to `N[C@@H](CC=O)C(=O)O` [ASA, L-aspartate-β-semialdehyde], in assay [5], the Km is 345 µM.
